For one data set, the system named is sodium channel. In words: Guanidine influx assay (14C-guanidine radiotracer flux, in vitro). The data set is classed as cell-based, human or rat. Conditions: guanidine influx assay using a known cell line that expresses a sodium channel; activity level class. An outline of the steps: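 Sodium channel block is measured as reduced 14C-guanidine uptake in cells stably expressing human or rat channels, stimulated with aconitine. Potency is given as IC50 from a four-parameter curve.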

The next data set addresses CYP3A4 (Homo sapiens, UniProt P08684). In words: Cytochrome P450 (CYP450) Inhibition Assay, CYP3A4 (Vivid fluorescence, BOMCC substrate). Conditions: human, P450 Baculosomes (recombinant CYP3A4), probe BOMCC (Vivid substrate).

Broadly, the IC50 is the midpoint of a concentration-inhibition curve. A word on the melting point: it is the temperature, or range, at which the solid turns liquid. A word on the inhibition: it is the share of the control response that was lost under treatment.

CYP3A4, sequence (P08684 whole entry): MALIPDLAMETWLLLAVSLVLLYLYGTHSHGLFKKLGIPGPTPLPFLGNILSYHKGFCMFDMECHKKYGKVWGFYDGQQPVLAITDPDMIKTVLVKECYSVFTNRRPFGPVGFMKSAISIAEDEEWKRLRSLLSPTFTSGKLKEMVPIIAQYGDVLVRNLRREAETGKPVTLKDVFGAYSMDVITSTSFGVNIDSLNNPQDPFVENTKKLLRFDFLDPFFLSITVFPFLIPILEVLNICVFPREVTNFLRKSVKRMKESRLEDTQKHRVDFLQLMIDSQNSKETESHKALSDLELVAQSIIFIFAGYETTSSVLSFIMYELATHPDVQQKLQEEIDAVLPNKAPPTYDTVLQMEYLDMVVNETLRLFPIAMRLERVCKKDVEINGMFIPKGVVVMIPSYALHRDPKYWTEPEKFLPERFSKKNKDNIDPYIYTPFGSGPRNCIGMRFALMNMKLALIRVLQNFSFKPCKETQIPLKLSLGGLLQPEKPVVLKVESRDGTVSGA

The molecule `COC(=O)c1cccc(CN2C(=O)C3(COc4cc5c(cc43)CCO5)c3ccccc32)c1` (stereo not drawn) [Example 9.15, methyl 3-[(2′-oxo-5,6-dihydrospiro[benzo[1,2-b:5,4-b′]difuran-3,3′-indol]-1′(2′H)-yl)methyl]benzoate] displayed a melting point of 97 to 98 °C. The IC50 in the data set with sodium channel was in the range of 1 to 100 nM. For the same molecule, on CYP3A4, the inhibition at 10 µM was more than 50%.

`COC(=O)c1ccc(CN2C(=O)C3(COc4cc5c(cc43)CCO5)c3ccccc32)cc1` (stereo not drawn) [Example 9.16, methyl 4-[(2′-oxo-5,6-dihydrospiro[benzo[1,2-b:5,4-b′]difuran-3,3′-indol]-1′(2′H)-yl)methyl]benzoate] came in with a melting point of 136 to 140 °C. In addition, the IC50 with sodium channel lay within 1 to 100 nM. For the same molecule, the inhibition at 10 µM at CYP3A4 is less than 50%.

In turn, `O=C1N(CCCOCc2ccccc2)c2ccccc2C12COc1cc3c(cc12)CCO3` (stereo not drawn) [Example 9.17, 1′-[3-(benzyloxy)propyl]-5,6-dihydrospiro[benzo[1,2-b:5,4-b′]difuran-3,3′-indol]-2′(1′H)-one] returned a melting point of 112 to 113 °C. The IC50 in the data set on sodium channel lay in the range of 100 to 1000 nM. Moreover, the inhibition at 10 µM on CYP3A4 is more than 50%.

As to `O=C1N(C[C@H]2CCCO2)c2ccc(F)cc2C12COc1cc3c(cc12)CCO3` (stereo partly drawn) [Example 9.18, 5′-fluoro-1′-[(2R)-tetrahydrofuran-2-ylmethyl]-5,6-dihydrospiro[benzo[1,2-b:5,4-b′]difuran-3,3′-indol]-2′(1′H)-one], the melting point fell in the range of 167 to 169 °C. The IC50 in the data set on sodium channel is 100 to 1000 nM. In addition, the inhibition at 10 µM on CYP3A4 was more than 50%.

For `O=C1N(C[C@H]2CCCO2)c2cc(F)ccc2C12COc1cc3c(cc12)CCO3` (stereo partly drawn) [Example 9.19, 6′-fluoro-1′-[(2R)-tetrahydrofuran-2-ylmethyl]-5,6-dihydrospiro[benzo[1,2-b:5,4-b′]difuran-3,3′-indol]-2′(1′H)-one], the melting point was 137 to 139 °C. For the same molecule, the IC50 in the data set on sodium channel was 100 to 1000 nM. In addition, the inhibition at 10 µM at CYP3A4 is less than 50%.

`Cc1nc2cc3c(cc2s1)C1(CO3)C(=O)N(Cc2ccccn2)c2ccccc21` (stereo not drawn) [Example 9.21, 2-methyl-1′-(pyridin-2-ylmethyl)spiro[furo[2,3-f][1,3]benzothiazole-7,3′-indol]-2′(1′H)-one] displayed a melting point of 249 to 250 °C. Moreover, in the data set on sodium channel, the IC50 lay within 1000 to 10000 nM. The inhibition at 10 µM at CYP3A4 was less than 50%.

The molecule `Cc1nc2cc3c(cc2s1)C1(CO3)C(=O)N(Cc2ncc(Cl)n2C)c2ccccc21` (stereo not drawn) [Example 9.22, 1′-[(5-chloro-1-methyl-1H-imidazol-2-yl)methyl]-2-methylspiro[furo[2,3-f][1,3]benzothiazole-7,3′-indol]-2′(1′H)-one] showed a melting point of 177 to 178 °C. The IC50 with sodium channel was 1000 to 10000 nM. Also, on CYP3A4, the inhibition at 10 µM was more than 50%.

Molecule `Cc1noc2cc3c(cc12)C1(CO3)C(=O)N(Cc2cccnc2)c2ccccc21` (stereo not drawn) [Example 9.25, 3-methyl-1′-(pyridin-3-ylmethyl)spiro[furo[3,2-f][1,2]benzisoxazole-5,3′-indol]-2′(1′H)-one] showed a melting point of 176 to 177 °C. In the data set on sodium channel, the IC50 lay within 1 to 100 nM. For the same molecule, at CYP3A4, the inhibition at 10 µM was more than 50%.

With `Cc1noc2cc3c(cc12)C1(CO3)C(=O)N(C[C@H]2CCCO2)c2ccccc21` (stereo partly drawn) [Example 9.26, 3-methyl-1′-[(2R)-tetrahydrofuran-2-ylmethyl]spiro[furo[3,2-f][1,2]benzisoxazole-5,3′-indol]-2′(1′H)-one], the melting point was in the range of 134 to 135 °C. For the same molecule, in the data set with sodium channel, the IC50 is 100 to 1000 nM. The inhibition at 10 µM at CYP3A4 was less than 50%.

On to `Cc1cc2c(cc1C)C1(CO2)C(=O)N(CC2CCOCC2)c2ccccc21` (stereo not drawn) [Example 9.27, 5,6-dimethyl-1′-(tetrahydro-2H-pyran-4-ylmethyl)spiro[1-benzofuran-3,3′-indol]-2′(1′H)-one], for which the melting point is 199 to 201 °C. Also, in the data set on sodium channel, the IC50 was 1000 to 10000 nM. For the same molecule, the inhibition at 10 µM at CYP3A4 is more than 50%.

As to `Cc1cc2c(cc1C)C1(CO2)C(=O)N(Cc2ccccn2)c2ccccc21` (stereo not drawn) [Example 9.28, 5,6-dimethyl-1′-(pyridin-2-ylmethyl)spiro[1-benzofuran-3,3′-indol]-2′(1′H)-one], the melting point lay within 165 to 168 °C. For the same molecule, the IC50 with sodium channel was 100 to 1000 nM. For the same molecule, the inhibition at 10 µM at CYP3A4 was less than 50%.

`COc1cc2c(cc1F)C1(CO2)C(=O)N(Cc2ccc(C(F)(F)F)o2)c2ccccc21` (stereo not drawn) [Example 9.30, 5-fluoro-6-methoxy-1′-{[5-(trifluoromethyl)furan-2-yl]methyl}spiro[1-benzofuran-3,3′-indol]-2′(1′H)-one] displayed a melting point of 45 to 47 °C. For the same molecule, the IC50 with sodium channel lay in the range of 100 to 1000 nM. Besides, the inhibition at 10 µM on CYP3A4 was more than 50%.

With `O=C1N(Cc2cccnc2)c2ccccc2C12COc1cc(F)c(F)cc12` (stereo not drawn) [Example 9.31, 5,6-difluoro-1′-(pyridin-3-ylmethyl)spiro[1-benzofuran-3,3′-indol]-2′(1′H)-one], the melting point is 175 to 177 °C. Further, the IC50 with sodium channel fell in the range of 1000 to 10000 nM. For the same molecule, the inhibition at 10 µM at CYP3A4 is more than 50%.

`COc1ccc2c(c1)OCC21C(=O)N(Cc2ccccn2)c2ccccc21` (stereo not drawn) [Example 9.33, 6-methoxy-1′-(pyridin-2-ylmethyl)-2H-spiro[benzofuran-3,3′-indolin]-2′-one]: the melting point was in the range of 122 to 123 °C. For the same molecule, in the data set on sodium channel, the IC50 was in the range of 1 to 100 nM. At CYP3A4, the inhibition at 10 µM is less than 50%.

In turn, `COc1ccc2c(c1)OCC21C(=O)N(Cc2cccnc2)c2ccccc21` (stereo not drawn) [Example 9.34, 6-methoxy-1′-(pyridin-3-ylmethyl)spiro[1-benzofuran-3,3′-indol]-2′(1′H)-one] displayed a melting point of 164 to 165 °C. In addition, in the data set with sodium channel, the IC50 lay in the range of 1 to 100 nM. The inhibition at 10 µM at CYP3A4 was more than 50%.

Consider `O=C1N(Cc2ccc(OCc3ccccc3)cc2)c2ccccc2C12COc1cc3c(cc12)OCCO3` (stereo not drawn) [Example 9.37, 1′-[4-(benzyloxy)benzyl]-2,3-dihydrospiro[furo[2,3-g][1,4]benzodioxine-8,3′-indol]-2′(1′H)-one], for which the melting point lay in the range of 87 to 89 °C. Further, the IC50 in the data set on sodium channel was 100 to 1000 nM. Further, the inhibition at 10 µM at CYP3A4 was less than 50%.

As to `O=C1N(Cc2ccc(OCc3ccccc3)cc2)c2ccccc2C12COc1cc3c(cc12)CCO3` (stereo not drawn) [Example 9.38, 1′-[4-(benzyloxy)benzyl]-5,6-dihydrospiro[benzo[1,2-b:5,4-b′]difuran-3,3′-indol]-2′(1′H)-one], the melting point fell in the range of 169 to 170 °C. In addition, the IC50 with sodium channel is 100 to 1000 nM. For the same molecule, the inhibition at 10 µM on CYP3A4 is less than 50%.

Turning to `O=C1N(Cc2ccc(OCc3ccccc3)cc2)c2ccccc2[C@]12COc1cc3c(cc12)OCCO3` [Example 9.39, (8S)-1′-[4-(Benzyloxy)Benzyl]-2,3-Dihydrospiro[Furo[2,3-g][1,4]Benzodioxine-8,3′-Indol]-2′(1′H)-One], the melting point was in the range of 151 to 153 °C. Also, the IC50 in the data set with sodium channel was in the range of 100 to 1000 nM. Further, the inhibition at 10 µM on CYP3A4 is less than 50%.

Take `CC(C)(C)OC(=O)Nc1ccc(CN2C(=O)C3(COc4cc5c(cc43)OCCO5)c3ccccc32)cn1` (stereo not drawn) [Example 9.40, tert-butyl {5-[(2′-oxo-2,3-dihydrospiro[furo[2,3-g][1,4]benzodioxine-8,3′-indol]-1′(2′H)-yl)methyl]pyridin-2-yl}carbamate]: the melting point is 238 to 239 °C. In addition, the IC50 in the data set on sodium channel was 100 to 1000 nM. Moreover, the inhibition at 10 µM at CYP3A4 was less than 50%.

As for `Cc1noc2cc3c(cc12)C1(CO3)C(=O)N(Cc2ccccc2C(F)(F)F)c2ccccc21` (stereo not drawn) [Example 9.41, 3-methyl-1′-[2-(trifluoromethyl)benzyl]spiro[furo[3,2-f][1,2]benzisoxazole-5,3′-indol]-2′(1′H)-one], the melting point lay in the range of 192 to 194 °C. For the same molecule, in the data set on sodium channel, the IC50 fell in the range of 100 to 1000 nM. Besides, on CYP3A4, the inhibition at 10 µM is more than 50%.

`Cc1noc2cc3c(cc12)C1(CO3)C(=O)N(Cc2ncccc2C(F)(F)F)c2ccccc21` (stereo not drawn) [Example 9.42, 3-methyl-1′-{[3-(trifluoromethyl)pyridin-2-yl]methyl}spiro[furo[3,2-f][1,2]benzisoxazole-5,3′-indol]-2′(1′H)-one] had a melting point of 221 to 222 °C. The IC50 in the data set on sodium channel was 100 to 1000 nM. In addition, on CYP3A4, the inhibition at 10 µM is more than 50%.

In the case of `O=C1N(CCCOCc2ccccc2)c2ccccc2C12COc1cc3c(cc12)OCCO3` (stereo not drawn) [Example 9.43, 1′-[3-(benzyloxy)propyl]-2,3-dihydrospiro[furo[2,3-g][1,4]-benzodioxine-8,3′-indol]-2′(1′H)-one], the melting point is 37 to 38 °C. Also, the IC50 in the data set on sodium channel was 1 to 100 nM. Also, at CYP3A4, the inhibition at 10 µM is less than 50%.

Regarding `CCOC(=O)CN1C(=O)C2(COc3cc4c(cc32)OCCO4)c2ccccc21` (stereo not drawn) [Example 9.44, ethyl (2′-oxo-2,3-dihydrospiro[furo[2,3-g][1,4]benzodioxine-8,3′-indol]-1′(2′H)-yl)acetate], the melting point was 58 to 59 °C. For the same molecule, the IC50 in the data set with sodium channel lay within 1 to 100 nM. At CYP3A4, the inhibition at 10 µM is less than 50%.

Regarding `CC1(C)OC[C@H](CN2C(=O)C3(COc4cc5c(cc43)OCCO5)c3ccccc32)O1` (stereo partly drawn) [Example 9.45, 1′-{[(4S)-2,2-dimethyl-1,3-dioxolan-4-yl}methyl]-2,3-dihydrospiro[furo[2,3-g][1,4]benzodioxine-8,3′-indol]-2′(1′H)-one], the melting point is 55 to 57 °C. Moreover, the IC50 in the data set with sodium channel is 1 to 100 nM. Moreover, the inhibition at 10 µM at CYP3A4 was more than 50%.

As for `COc1ccc(CN2C(=O)C3(COc4cc(OC)c(C#N)cc43)c3ccccc32)cc1` (stereo not drawn) [Example 9.46, 6-methoxy-1′-(4-methoxybenzyl)-2′-oxo-1′,2′-dihydrospiro[1-benzofuran-3,3′-indole]-5-carbonitrile], the melting point fell in the range of 207 to 208 °C. Moreover, the IC50 in the data set on sodium channel lay within 100 to 1000 nM. Moreover, the inhibition at 10 µM on CYP3A4 is more than 50%.

The values are drawn from patent US8263606B2 (Xenon Pharmaceuticals Inc., priority 2008, dated 2012).
